One block for each molecule: values may come before it.
Key:
[1] = target: T1, Solute carrier family 22 member 6 (Rattus norvegicus, UniProt O35956); assay: TP_TRANSPORTER: inhibition of PAH uptake (PAH: 50 uM, Urate; 1000 uM) in Xenopus laevis oocytes; type: functional, cell-based; conditions: oocyte
T1 sequence (O35956 whole entry): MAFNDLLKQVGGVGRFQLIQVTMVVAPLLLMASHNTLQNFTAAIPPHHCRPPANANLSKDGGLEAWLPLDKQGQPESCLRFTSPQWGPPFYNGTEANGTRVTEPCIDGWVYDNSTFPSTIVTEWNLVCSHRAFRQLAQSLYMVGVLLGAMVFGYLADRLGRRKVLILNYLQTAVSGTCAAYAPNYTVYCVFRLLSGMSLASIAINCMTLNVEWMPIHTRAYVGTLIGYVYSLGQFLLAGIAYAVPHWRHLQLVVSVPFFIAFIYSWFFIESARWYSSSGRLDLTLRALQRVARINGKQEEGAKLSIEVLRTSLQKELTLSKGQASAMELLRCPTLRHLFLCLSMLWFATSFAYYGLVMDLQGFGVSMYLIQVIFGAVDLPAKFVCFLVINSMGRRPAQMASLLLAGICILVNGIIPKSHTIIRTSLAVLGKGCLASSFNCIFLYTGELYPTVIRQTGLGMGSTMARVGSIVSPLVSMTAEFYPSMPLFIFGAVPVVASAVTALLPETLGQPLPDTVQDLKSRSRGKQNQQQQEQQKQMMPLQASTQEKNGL

[2] = substrate: Nc1ccc(C(=O)NCC(=O)O)cc1; assay: cells, lysate or membranes named

Activity [1]: is not an inhibitor [-]
Molecule: O=c1[nH]c(=O)c2[nH]c(=O)[nH]c2[nH]1 [URIC ACID]

B1: Solute carrier family 22 member 6 (Rattus norvegicus) (protein)
chain: T1 sequence (O35956 whole entry)
Km [2]: 70 µM

From ChEMBL document CHEMBL2074264, “Expression cloning and characterization of ROAT1. The basolateral organic anion transporter in rat kidney” (J Biol Chem, 1997)
